US9855242B2, “Composition for an immunomodulation” (Eberhard Karls Universität Tübingen Medizinische Fakultät, priority 2013, dated 2018)

Tests used:
Human NK cells [1] = experiment: CellTiterBlue viability measurement on human NK cells; format: cell-based; conditions: 48 hours treatment; 6.25, 12.5, 25 or 50 μM of 6-PN or 8-PN, SAHA in low concentrations; versus untreated control; FIG. 2
Description: Human NK cells were treated for 48 hours with 6.25, 12.5, 25 or 50 μM of 6-PN or 8-PN. In the following a viability measurement was carried out (CellTiterBlue Viability Asasy, Promega, Madison, United States of America). The clinically used and established HDACi SAHA (Vorinostat) was used in low concentrations as a reference die for both natural HDACi 6-PN and 8-PN. Shown are the mean values with a standard deviation from three independent experiments with expanded NK cells from three healthy human donors. The horizontal continuous line visualizes the value of the untreated control; a decrease of the fluorescence signal means a reduction of the viability.

Human NK cells [2] = experiment: Overall survival of NK cells, trypan blue staining and daily microscopic counting; format: cell-based; conditions: one time treatment with 6.25, 12.5, 25 or 50 μM; versus untreated control and SAHA treated cells; FIG. 3
Description: Human NK cells were treated with 6.25, 12.5, 25 or 50 μM of 6-PN or 8-PN. Subsequently via a tryptan blue staining and a daily microscopic counting in standardized C chip counter chambers the overall survival of NK cells was measured. As a reference dye again the HDACi SAHA (Vorinostat) was used. Shown is the average value with standard deviation from three independent experiments with expanded NK cells from three healthy human donors. The left arrow visualizes <10% of living cells in the SAHA treatment group; the right arrow visualizes <10% of living cells in the untreated control group.

human hepG2 tumor cells = experiment: NK activity on HepG2 tumor cells by realtime cell monitoring (xCELLigence impedance); format: cell-based
Description: In a further experiment the NK activity on human hepG2 tumor cells by means of realtime cell monitoring (Roche Applied Sciences xCELLigence SP-System, Mannheim, Germany) was analyzed. […] The cellular impedance of the adherent tumor cells were measured as parameters for the cell status (cell number, viability, morphology, adhesion). As a positive control for the induction of cell death Triton X-100 was used. Three independent experiments with expanded NK cells from three healthy human donors were carried out. Shown are the average values with standard deviation of one exemplary experiment. The HepG2 tumor cells (target) were incubated at the start of the treatment (24 hours) with 25 μM of 6-PN or 8-PN or with NK cells (effector) (effector to target ratio (E:T)=1.25:1 or 2.5:1) or with the combination of HDACi and NK cells. The normalization happened at the start of the treatment and a decrease of the impedance (normalized cell index) means a reduction of the cell viability or the cell status, respectively.

Hep3B = experiment: NK activity on a further tumor cell line by realtime cell monitoring; format: cell-based; conditions: compared with the HepG2 result
[3] = system: melanoma tumor cells with adherent immune cells; experiment: Primary patient material: melanoma tumor cells with adherent immune cells, tumor cell count; format: cell-based, human; conditions: 12.5 μM or 25 μM; 48, 72, and 96 hours after the start of the treatment; **P<0.01; FIG. 5
[4] = system: NK cells of healthy donors; experiment: NK cell viability with automated cell counting device (NC-250); format: cell-based, human; conditions: one time 12.5 μM or 25 μM; daily over 336 h; FIG. 6
Description: The examination therefore is independent from the experimentator. NK cells of two healthy donors were one time treated with 12.5 μM or 25 μM of 6-PN or 8-PN, respectively, and subsequently two independent points in time on a daily basis examined by means of a nucleo counter NC-250 cell counting device with respect to viability over a time period of 336 h; shown is the average value +/−SD.

PBMCs of healthy donors [5] = experiment: PBMC viability with automated cell counting device (NC-250); format: cell-based, human; conditions: one time 12.5 μM or 25 μM; daily over 336 hours; FIG. 7
Description: The result is shown in the FIG. 7: PBMCs of three healthy donors were one time treated with 12.5 μM or 25 μM of 6-PN or 8-PN and subsequently on a daily basis at independent points in time examined by means of a nucleo counter NC-250 cell counting device with respect to viability over a time period of 336 hours; shown is the average value +/−SD.

PBMCs of healthy donors [6] = experiment: Metabolic activity of PBMCs, Promega CellTiter-Blue Assay; format: cell-based, human; conditions: one time 12.5 μM or 25 μM; after 48 hours; FIG. 8A
Description: (§1) The result is shown in the FIG. 8: A PBMCs of two healthy donors were one time treated with 12.5 μM or 25 μM of 6-PN or 8-PN and examined after 48 hours. B NKL cells were one time treated with 12.5 μM or 25 μM of 6-PN or 8-PN and examined after 48 h. In both immune cell populations and in both treatments an increase of a metabolic activity can be detected; shown is the average value +/−SD.

NK cell line NKL = experiment: Metabolic activity of NKL cells, Promega CellTiter-Blue Assay; format: cell-based; conditions: one time 12.5 μM or 25 μM; after 48 h; FIG. 8B
Description: as §1

[7] = system: estrogen receptors of the uterus of rats; conditions: cited from earlier work
[8] = system: angiogenesis induced by the basic fibroblast growth factor and the vascular endothelial growth factor; conditions: three dimensional collagen gel; bFGF and VEGF induced; cited from earlier work
angiogenesis = conditions: chorioallantois membrane assays; cited from earlier work
MCF7 cells = conditions: cited from earlier work
P glycoprotein = P glycoprotein (Homo sapiens, UniProt P08183); conditions: cited from earlier work
Sequence of P glycoprotein (P08183 whole entry): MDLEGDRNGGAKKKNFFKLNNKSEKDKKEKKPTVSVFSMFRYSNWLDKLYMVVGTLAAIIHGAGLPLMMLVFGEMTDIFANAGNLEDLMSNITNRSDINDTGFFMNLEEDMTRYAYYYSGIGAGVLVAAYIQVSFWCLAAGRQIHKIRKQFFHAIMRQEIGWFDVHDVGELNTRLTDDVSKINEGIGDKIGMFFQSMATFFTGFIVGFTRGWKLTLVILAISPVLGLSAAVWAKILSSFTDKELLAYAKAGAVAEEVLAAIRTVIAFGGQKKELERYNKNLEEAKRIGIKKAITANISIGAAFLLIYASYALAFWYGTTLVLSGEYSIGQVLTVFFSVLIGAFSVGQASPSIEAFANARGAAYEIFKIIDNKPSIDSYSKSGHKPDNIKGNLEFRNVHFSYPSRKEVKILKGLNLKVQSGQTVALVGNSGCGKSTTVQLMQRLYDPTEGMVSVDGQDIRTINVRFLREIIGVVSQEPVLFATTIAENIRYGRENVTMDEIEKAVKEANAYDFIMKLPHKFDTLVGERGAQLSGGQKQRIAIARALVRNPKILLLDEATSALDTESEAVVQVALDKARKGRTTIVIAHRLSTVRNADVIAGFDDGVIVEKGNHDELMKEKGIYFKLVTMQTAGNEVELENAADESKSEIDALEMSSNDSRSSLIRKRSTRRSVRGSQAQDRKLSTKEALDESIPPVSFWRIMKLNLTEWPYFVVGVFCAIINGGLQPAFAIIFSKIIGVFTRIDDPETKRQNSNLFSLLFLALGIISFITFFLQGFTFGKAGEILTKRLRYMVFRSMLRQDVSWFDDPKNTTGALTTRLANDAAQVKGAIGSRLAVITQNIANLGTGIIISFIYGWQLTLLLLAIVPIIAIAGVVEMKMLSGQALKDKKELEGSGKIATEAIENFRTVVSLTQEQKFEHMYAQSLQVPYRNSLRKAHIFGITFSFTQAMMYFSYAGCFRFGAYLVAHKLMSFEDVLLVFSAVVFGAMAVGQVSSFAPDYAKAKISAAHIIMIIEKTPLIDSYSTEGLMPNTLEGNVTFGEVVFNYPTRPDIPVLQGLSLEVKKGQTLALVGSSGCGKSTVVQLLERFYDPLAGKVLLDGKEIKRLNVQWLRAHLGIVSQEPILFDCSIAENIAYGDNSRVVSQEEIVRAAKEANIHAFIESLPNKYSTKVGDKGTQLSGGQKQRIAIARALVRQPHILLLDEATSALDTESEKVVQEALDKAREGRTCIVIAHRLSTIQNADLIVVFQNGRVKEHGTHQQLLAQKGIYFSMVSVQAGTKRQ

MRP1 = MRP1 (Homo sapiens, UniProt P33527); conditions: cited from earlier work
Sequence of MRP1 (P33527 whole entry): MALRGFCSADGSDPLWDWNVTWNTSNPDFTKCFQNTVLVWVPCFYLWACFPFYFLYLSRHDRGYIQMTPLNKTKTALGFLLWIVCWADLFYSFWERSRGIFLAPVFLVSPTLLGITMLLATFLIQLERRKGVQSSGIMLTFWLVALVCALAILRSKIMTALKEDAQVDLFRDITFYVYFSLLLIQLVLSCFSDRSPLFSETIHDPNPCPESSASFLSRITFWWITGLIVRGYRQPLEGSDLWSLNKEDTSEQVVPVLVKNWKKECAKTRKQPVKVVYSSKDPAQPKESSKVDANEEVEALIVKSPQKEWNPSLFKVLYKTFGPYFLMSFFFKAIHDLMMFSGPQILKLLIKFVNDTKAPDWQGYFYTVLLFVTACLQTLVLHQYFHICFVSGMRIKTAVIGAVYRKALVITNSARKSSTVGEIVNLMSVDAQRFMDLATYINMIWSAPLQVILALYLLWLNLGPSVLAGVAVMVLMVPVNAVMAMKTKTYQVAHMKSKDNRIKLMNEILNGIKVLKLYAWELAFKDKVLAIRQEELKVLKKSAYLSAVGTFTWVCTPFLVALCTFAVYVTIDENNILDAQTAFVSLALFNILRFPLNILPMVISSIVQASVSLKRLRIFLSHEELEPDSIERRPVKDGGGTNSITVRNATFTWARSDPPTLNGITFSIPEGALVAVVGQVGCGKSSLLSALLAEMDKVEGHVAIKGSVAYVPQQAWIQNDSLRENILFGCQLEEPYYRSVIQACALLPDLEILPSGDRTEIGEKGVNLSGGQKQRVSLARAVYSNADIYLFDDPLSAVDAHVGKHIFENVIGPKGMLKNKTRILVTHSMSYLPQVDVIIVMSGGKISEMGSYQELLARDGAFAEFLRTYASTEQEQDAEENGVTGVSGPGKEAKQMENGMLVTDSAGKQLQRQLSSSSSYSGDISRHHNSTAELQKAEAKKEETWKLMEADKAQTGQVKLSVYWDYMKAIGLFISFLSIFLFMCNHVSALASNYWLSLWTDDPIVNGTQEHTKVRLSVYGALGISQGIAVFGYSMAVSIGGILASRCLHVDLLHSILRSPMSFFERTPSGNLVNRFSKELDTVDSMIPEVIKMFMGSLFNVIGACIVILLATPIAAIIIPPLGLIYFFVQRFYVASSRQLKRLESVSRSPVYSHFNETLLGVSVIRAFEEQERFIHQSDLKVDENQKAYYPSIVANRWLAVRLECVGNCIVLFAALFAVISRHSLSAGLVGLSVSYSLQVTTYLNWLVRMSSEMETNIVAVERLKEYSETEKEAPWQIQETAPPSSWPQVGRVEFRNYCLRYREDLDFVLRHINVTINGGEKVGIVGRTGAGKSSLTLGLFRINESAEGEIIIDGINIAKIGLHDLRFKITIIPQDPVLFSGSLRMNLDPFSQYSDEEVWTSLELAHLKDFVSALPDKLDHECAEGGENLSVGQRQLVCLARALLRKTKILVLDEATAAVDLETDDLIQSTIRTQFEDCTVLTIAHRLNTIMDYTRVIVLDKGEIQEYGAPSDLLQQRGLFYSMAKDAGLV

[9] = system: PI (3) K/Akt signaling pathway; conditions: MCF-7 cells in vitro; cited from earlier work
PC-3 = conditions: in vitro; cited from earlier work
DU145 = conditions: in vitro; cited from earlier work
[10] = system: histone deacetylases (HDACs) of classes I, II, and IV; conditions: cited from earlier work

Row | Structure (SMILES) | viability of human NK cells (Human NK cells [1]) | survival rate of the NK cells (Human NK cells [2]) | activity of the human NK cells over human tumor cells (normalized cell index) (human hepG2 tumor cells; 25 μM with NK cells, E:T 1.25:1 or 2.5:1, FIG. 4) | sensitivity of HepG2 tumor cells against the compound (human hepG2 tumor cells; compound without NK cells) | activity of NK cells on further tumor cell line (Hep3B) | quantitative evaluation of the tumor cells (melanoma cells) [3] | viability of NK cells of healthy donors [4] | viability of PBMCs of healthy donors (PBMCs of healthy donors [5]) | metabolic activity of PBMCs (PBMCs of healthy donors [6]) | metabolic activity of NKL cells (NK cell line NKL) | binding affinity for estrogen receptors [7] | angiogenesis in vitro [8] | angiogenesis in vivo (angiogenesis) | apoptosis in MCF7 cells (MCF7 cells) | inhibition of the P glycoprotein (P glycoprotein) | inhibition of MRP1 (MRP1) | activation of the PI (3) K/Akt signaling pathway [9] | antiproliferative effects on PC-3 (PC-3) | antiproliferative effects on DU145 (DU145) | inhibition of histone deacetylases (HDACs) of classes I, II, and IV [10]
1 | O=C(CCCCCCC(=O)Nc1ccccc1)NO [SAHA, reference compound] | significant decrease of the viability | – | – | – | – | – | – | – | – | – | – | – | – | – | – | – | – | – | – | –
2 | CC(C)=CCc1c(O)cc(O)c2c1OC(c1ccc(O)cc1)CC2=O (stereo not drawn) [8-PN, 5,7-dihydroxy-2-(4-hydroxy-phenyl)-8-(3-methyl-but-2-enyl)-chroman-4-one] | in parts significant increase of the viability | significantly increased | increased activity of the human NK cells | low sensitivity | equivalent results | significant decrease of the melanoma cells | increase/extend the viability | increase/extend viability | increase the metabolic activity | increase the metabolic activity | strong binding affinity | inhibits the angiogenesis | inhibits the angiogenesis | induces furthermore the apoptosis | inhibition | inhibition | directly inhibits the activation | antiproliferative effects | antiproliferative effects | distinct inhibitors
